Values of other authors as cited in patent US20150283148A1, “ARRANGEMENT OF SPECIFIC ANTIDOTES WITH ALLOPATHIC MEDICINAL PREPARATIONS IN GENERAL SECONDARY PACKAGE” (priority 2014, published 2015).

Settings: predicted by algorithm

SMILES: NS(=O)(=O)Cc1noc2ccccc12 [Zonisamide]
- predicted latent side effect: suicidal thoughts
